In patent US10662146B2, “Prodrugs of fencamfamine” (Praxis Bioresearch, LLC, priority 2015, dated 2020):
“And” between values parts separate entries of the source, which are not always exact repeats. Identical values can stand only once. Like-named read-outs stand apart in the source and are kept apart here.

Experiment: Single dose intravenous PK study in male Sprague Dawley rats (plasma by LC-MS/MS)
Assay type: in vivo
Settings: for AUC(0-inf): read-out: AUCinf of PRX-P5-006; for AUC(0-t): read-out: AUClast of PRX-P5-006; for clearance: read-out: CL of PRX-P5-006; for AUC: read-out: IV PK Parameters AUC, Prodrug; for C0: read-out: C0 of PRX-P5-006
Experimental: We describe here PK results of prodrugs of PRX-002 (−) or (+) isomers. All doses of prodrugs were administered such that they were equivalent to 5 mg/kg of PRX-002 (−) or (+) for oral studies and 2 mg/kg PRX-002 (−) or (+) for intravenous studies in male Sprague-Dawley (MSD) rats. Higher doses of up to 10 or 15 mg/kg [again equivalent to PRX-002 (−)] were used in some studies (as specified)]. Formulation preparation, dose administration and time of sample collection was as follows.
(§1) Adult male Sprague Dawley Rats aged 8-10 weeks were used for the study. Animals were administered the test item by Intravenous bolus route with a dose of 2 mg/kg body weight at dose volume of 5.0 mL/kg body weight. Under mild isoflurane anesthesia, blood specimens were collected by retro-orbital puncture method using capillary tubes into pre-labeled tubes containing anticoagulant (K2EDTA-2 mg/mL blood) during the next 24 hours of post dose as mentioned in below table. For blood sampling at multiple time points, right and left eyes were used alternatively for blood collection. Collected blood specimens were centrifuged at 4000 rpm, 4° C. for 10 minutes and plasma were separated and stored at −80° C. until analysis.
Blood was collected as outlined in Table 39.2 (IV).
Test item PRX-P4-003 was weighed and transferred to a graduated tube. Then 600 μL of PEG 400 (v/v) was added and vortex mixed thoroughly until the test item was completely dissolved. Then 1.800 mL of Hydroxypropyl-β-cyclodextrin (HPβCD, 50% w/v) was added and vortex mixed thoroughly. The final volume was then made up to 3.600 mL with sterile water for injection (SWFI, v/v) with final formulation strength of 5.16 mgA/mL. […] This formulation was freshly prepared before the administration to animals.
as §1, with “administered with a PRX-P4-003” for “administered the test item”, “of 10” for “of 2”, “of 5” for “of 5.0”
Test item PRX-P5-006 was weighed and transferred to a graduated tube. Then 500 μL of DMSO (v/v) was added vortex mixed thoroughly until the test item was completely dissolved. Then 4000 μL of Hydroxypropyl-β-cyclodextrin (HPβCD, 50% w/v) was added and vortex mixed thoroughly. Then 2500 μL of PEG 400 (v/v) was added and vortex mixed thoroughly. The final volume was then made up to 10000 μL with sterile water for injection (SWFI, v/v) with final formulation strength of 3.97 mg/mL. […] This formulation was freshly prepared before the administration to animals.
as §1, with “administered with a PRX-P5-006” for “administered the test item”, “of 15” for “of 2”, “of 10” for “of 5.0”
The plasma concentrations of fencamfamine were measured by LC-MS/MS over time. […] The release of fencamfamine from the prodrugs varied depending on the chain length of the fatty acid linkers attached to fencamfamine. […]

[1] = PRX-P5-006 IV 2 mg/kg b.w., individual animals, 2 mg/kg
[2] = PRX-P5-006 IV 2 mg/kg, mean, 2 mg/kg
[3] = male, Sprague Dawley, rat, plasma, iv, 2 mg/kg, PRX-P5-006 IV 2 mg/kg, mean
[4] = male, Sprague-Dawley, rat, plasma, iv, 2 mg/kg, PRX-P5-006 IV 2 mg/kg b.w., individual animals

## CCCCCCCCCCCCCCCCCC(=O)OC(C)OC(=O)N(CC)C1C2CCC(C2)C1c1ccccc1 (single isomer, unassigned) [PRX-P5-006, N-(1-Octadecanoyloxyethoxycarbonyl)-(−)-N-ethyl-3-phenylbicyclo[2.2.1]heptan-2-amine]
[1]
  AUC% extrap of PRX-P5-006: 5.16% and 3.49% and 11.16%
  AUCinf of PRX-P5-006: 3977.39 ng·h/mL and 4119.23 ng·h/mL
  AUClast of PRX-P5-006: 3838.58 ng·h/mL and 3659.58 ng·h/mL
  C0 of PRX-P5-006: 32467.12 ng/mL and 21202.31 ng/mL
  CL of PRX-P5-006: 8.38 mL/min/kg and 8.09 mL/min/kg
  Cmax of PRX-P5-006: 8662.3 ng/mL and 7404.71 ng/mL
  MRTlast of PRX-P5-006: 2.7 h and 0.93 h and 3.31 h
  T1/2 of PRX-P5-006: 7.54 h and 2.06 h and 9.32 h
  Vss of PRX-P5-006: 1.56 L/kg and 0.61 L/kg and 3.46 L/kg
[2]
  AUC% extrap of PRX-P5-006: 6.602 ± 4.0330% and 6.602%
  T1/2 of PRX-P5-006: 6.304 h
PRX-P5-006 administered IV (FIGS. 5A, 5B)
  Level of intact PRX-P5-006 in plasma, IV versus oral: Much higher level of intact PRX-P5-006
male, Sprague Dawley, rat, plasma, iv, 2 mg/kg, IV 2 mg/kg [equivalent to PRX-002 (−)], analyte: prodrug in plasma, mean, read-out: IV PK Parameters Cmax, Prodrug
  Cmax: 707 ± 500 ng/mL
[3]
  AUC(0-inf): 4560 ± 894 ng·h/mL
  AUC(0-t): 4270 ± 902 ng·h/mL
  clearance: 7.48 ± 1.32 mL/min/kg
male, Sprague Dawley, rat, plasma, iv, 2 mg/kg, PRX-P5-006 IV 2 mg/kg, mean, read-out: Vss of PRX-P5-006
  Vd: 1.88 ± 1.45 L/kg
male, Sprague Dawley, rat, plasma, iv, 15 mg/kg, IV 15 mg/kg (footnote *), analyte: prodrug in plasma, mean, read-out: IV PK Parameters Cmax, Prodrug
  Cmax: 16400 ± 7100 ng/mL
male, Sprague Dawley, rat, IV 2 mg/kg [equivalent to PRX-002 (−)], analyte: prodrug in plasma, mean
  AUC: 410 ± 301 ng·h/mL
male, Sprague Dawley, rat, IV 2 mg/kg [equivalent to PRX-002 (−)], analyte: prodrug in plasma, mean, read-out: IV PK Parameters Tmax, Prodrug
  Tmax: 4.8 min
male, Sprague Dawley, rat, IV 15 mg/kg (footnote *), analyte: prodrug in plasma, mean
  AUC: 8060 ± 1760 ng·h/mL
male, Sprague Dawley, rat, IV 15 mg/kg (footnote *), analyte: prodrug in plasma, mean, read-out: IV PK Parameters Tmax, Prodrug
  Tmax: 4.8 min
[4]
  AUC(0-inf): 5590 ng·h/mL
  AUC(0-t): 5300 ng·h/mL
  C0: 36200 ng/mL
  clearance: 5.96 mL/min/kg
male, Sprague-Dawley, rat, plasma, iv, 2 mg/kg, PRX-P5-006 IV 2 mg/kg b.w., individual animals, read-out: Cmax of PRX-P5-006
  Cmax: 11200 ng/mL
male, Sprague-Dawley, rat, plasma, iv, 2 mg/kg, PRX-P5-006 IV 2 mg/kg, mean
  C0: 30000 ng/mL
male, Sprague-Dawley, rat, plasma, iv, 2 mg/kg, PRX-P5-006 IV 2 mg/kg, mean, read-out: Cmax of PRX-P5-006
  Cmax: 9100 ± 1950 ng/mL
male, Sprague-Dawley, rat, plasma, iv, 2 mg/kg, PRX-P5-006 IV 2 mg/kg, mean, read-out: MRTlast of PRX-P5-006
  MRT last: 2.31 ± 1.24 h
male, Sprague-Dawley, rat, plasma, iv, 2 mg/kg, PRX-P5-006 IV 2 mg/kg, mean, read-out: T1/2 of PRX-P5-006 (converted)
  half-life: 6.3 ± 3.79 h
male, Sprague-Dawley, rat, plasma, PRX-P5-006 IV 2 mg/kg, mean, read-out: Tmax of PRX-P5-006
  Tmax: 4.8 min

## CCCCCCCCCCCCCCCCCC(=O)OC(C)OC(=O)N(CC)C1C2CCC(C2)C1c1ccccc1 (single isomer, unassigned) [PRX-P5-011, N-(1-Octadecanoyloxyethoxycarbonyl)-(+)-N-ethyl-3-phenylbicyclo[2.2.1]heptan-2-amine]
PRX-P5-011 IV 2 mg/kg b.w., 0.08 h, individual animals, 2 mg/kg
  Plasma concentration of PRX-P5-011: 114.77 ng/mL and 37.09 ng/mL and 179.14 ng/mL
PRX-P5-011 IV 2 mg/kg b.w., 0.25 h, individual animals, 2 mg/kg
  Plasma concentration of PRX-P5-011: 56.47 ng/mL and 17.98 ng/mL and 101.04 ng/mL
PRX-P5-011 IV 2 mg/kg b.w., 0.50 h, individual animals
  Plasma concentration of PRX-P5-011: 0.00 ng/mL
PRX-P5-011 IV 2 mg/kg b.w., 1.00 h, individual animals
  Plasma concentration of PRX-P5-011: 0.00 ng/mL
PRX-P5-011 IV 2 mg/kg b.w., 2.00 h, individual animals
  Plasma concentration of PRX-P5-011: 0.00 ng/mL
PRX-P5-011 IV 2 mg/kg b.w., 4.00 h, individual animals
  Plasma concentration of PRX-P5-011: 0.00 ng/mL
PRX-P5-011 IV 2 mg/kg b.w., 6.00 h, individual animals
  Plasma concentration of PRX-P5-011: 0.00 ng/mL
PRX-P5-011 IV 2 mg/kg b.w., 24.00 h, individual animals
  Plasma concentration of PRX-P5-011: 0.00 ng/mL
male, Sprague-Dawley, rat, plasma, iv, 2 mg/kg, PRX-P5-011 IV 2 mg/kg b.w., 0.08 h, mean
  concentration at 0.08 h: 110 ng/mL
male, Sprague-Dawley, rat, plasma, iv, 2 mg/kg, PRX-P5-011 IV 2 mg/kg b.w., 0.25 h, mean
  concentration at 0.25 h: 58.5 ng/mL
male, Sprague-Dawley, rat, plasma, iv, 2 mg/kg, PRX-P5-011 IV 2 mg/kg b.w., 0.50 h, individual animals
  concentration at 0.5 h: 0 ng/mL
male, Sprague-Dawley, rat, plasma, iv, 2 mg/kg, PRX-P5-011 IV 2 mg/kg b.w., 0.50 h, mean
  concentration at 0.5 h: 0 ng/mL
male, Sprague-Dawley, rat, plasma, iv, 2 mg/kg, PRX-P5-011 IV 2 mg/kg b.w., 1.00 h, individual animals
  concentration at 1 h: 0 ng/mL
male, Sprague-Dawley, rat, plasma, iv, 2 mg/kg, PRX-P5-011 IV 2 mg/kg b.w., 1.00 h, mean
  concentration at 1 h: 0 ng/mL
male, Sprague-Dawley, rat, plasma, iv, 2 mg/kg, PRX-P5-011 IV 2 mg/kg b.w., 2.00 h, individual animals
  concentration at 2 h: 0 ng/mL
male, Sprague-Dawley, rat, plasma, iv, 2 mg/kg, PRX-P5-011 IV 2 mg/kg b.w., 2.00 h, mean
  concentration at 2 h: 0 ng/mL
male, Sprague-Dawley, rat, plasma, iv, 2 mg/kg, PRX-P5-011 IV 2 mg/kg b.w., 4.00 h, individual animals
  concentration at 4 h: 0 ng/mL
male, Sprague-Dawley, rat, plasma, iv, 2 mg/kg, PRX-P5-011 IV 2 mg/kg b.w., 4.00 h, mean
  concentration at 4 h: 0 ng/mL
male, Sprague-Dawley, rat, plasma, iv, 2 mg/kg, PRX-P5-011 IV 2 mg/kg b.w., 6.00 h, individual animals
  concentration at 6 h: 0 ng/mL
male, Sprague-Dawley, rat, plasma, iv, 2 mg/kg, PRX-P5-011 IV 2 mg/kg b.w., 6.00 h, mean
  concentration at 6 h: 0 ng/mL
male, Sprague-Dawley, rat, plasma, iv, 2 mg/kg, PRX-P5-011 IV 2 mg/kg b.w., 24.00 h, individual animals
  concentration at 24 h: 0 ng/mL
male, Sprague-Dawley, rat, plasma, iv, 2 mg/kg, PRX-P5-011 IV 2 mg/kg b.w., 24.00 h, mean
  concentration at 24 h: 0 ng/mL
